Patent publication US20250051375A1, “ANTI-HIV COMPOUNDS” (Gilead Sciences, Inc., priority 2023, published 2025)
Values after ≈ are worked out from the molar mass of the structure shown. Like-named read-outs stand apart in the source and are kept apart here.

Key:
HIV-1 IIIB strain = experiment: MT-4 HIV Wild Type Virus Infection Assay (IIIB Virus); assay type: cell-based; settings: MT-4 cells acutely infected with HIV-1 IIIB, 5 day incubation, Cell-titer glo
Outline: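 MT-4 cells at 2×10^6 cells/ml in RPMI/10% FBS were acutely infected with HIV-1 IIIB for 1 h at 37° C, diluted 25× and added to serially diluted compounds. After 5 days at 37° C, viability read by CellTiter-Glo luminescence; EC50 from dose-response curves.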

[1] = biological target: bovine intestinal alkaline phosphatase (Bos taurus (Bovine), UniProt P19111); experiment: BiALP: conversion by bovine intestinal alkaline phosphatase; assay type: in vitro ADME; settings: 2 μM substrate, 100 ng/mL iALP, Tris pH 7.8, 37° C., 60 minutes; for [Intermediate A] or [Amprenavir]: parent formed
bovine intestinal alkaline phosphatase, sequence (P19111 20-506): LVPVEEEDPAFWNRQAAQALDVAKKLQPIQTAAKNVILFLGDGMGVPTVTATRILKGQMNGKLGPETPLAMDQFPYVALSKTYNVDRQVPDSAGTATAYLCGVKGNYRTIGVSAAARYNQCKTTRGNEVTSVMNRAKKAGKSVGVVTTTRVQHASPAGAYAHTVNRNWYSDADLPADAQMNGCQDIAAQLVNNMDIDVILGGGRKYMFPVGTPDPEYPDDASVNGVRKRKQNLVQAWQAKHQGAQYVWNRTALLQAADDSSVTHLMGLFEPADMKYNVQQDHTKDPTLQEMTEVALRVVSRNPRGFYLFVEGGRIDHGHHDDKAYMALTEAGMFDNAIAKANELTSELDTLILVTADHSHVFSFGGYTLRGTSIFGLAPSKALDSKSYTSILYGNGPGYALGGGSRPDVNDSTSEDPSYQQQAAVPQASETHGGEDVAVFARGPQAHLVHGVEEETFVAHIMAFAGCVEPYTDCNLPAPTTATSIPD
Outline: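 LC-MS (positive mode) quantified analyte/internal-standard peak area ratios, referenced to 2 μM parent product. This followed a 60 min, 37° C reaction of 2 μM substrate in Tris buffer pH 7.8 (1 mM MgCl2, 1 mM ZnCl2) containing 100 ng/mL iALP or buffer alone, run in triplicate.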

PBS Stability Assay = assay type: physicochemical; settings: phosphate buffered saline pH 7.4; for half-life at 2 μM: buffer, pH 7.4, 2 μM, read-out: PBS T½
Outline: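 Half-life derives from first-order exponential decline of % compound remaining, quantified by LC-MS analyte/internal-standard peak-area ratio. Compound (2 μM final) sat in pH 7.4 phosphate-buffered saline, with aliquots quenched into acidified acetonitrile containing labetalol from 0 to 120 min.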

Solubility in FaSSIF = settings: for solubility at 2 h: 23 °C, pH 6.5, fassif, thermodynamic from solid
Outline: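 Concentration measured by HPLC-UV after solid compound was dosed at 5 mg/mL into pH 6.5 fasted-state simulated intestinal fluid containing taurocholate and lecithin (4:1 molar) and vortexed.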

[2] = Human immunodeficiency virus 1, IIIB, MT4, 120 h

Structure (SMILES)	EC50 (HIV-1 IIIB strain; [2]) [nM]	[Compound] [1] [nM]	half-life at 2 μM (PBS Stability Assay) [h]	solubility at 2 h (Solubility in FaSSIF) [µg/mL]	biALP Intermediate A or [Amprenavir] (% of total) [1]	[Intermediate A] or [Amprenavir] [1] [nM]	EC50 (HIV-1 IIIB strain; read-out: EC50) [nM]	PBS T½ (PBS Stability Assay; 2 μM) [h]	FaSSIF (pH 6.5) solubility (Solubility in FaSSIF; FaSSIF pH 6.5, dose 5 mg/mL, 2-hour incubation, ambient temperature) [μg/mL]
COC(=O)N[C@H](C(=O)N[C@@H](Cc1ccc(C#Cc2cnc(N3CC4CCC(C3)N4C3COC3)nc2)cc1)[C@H](CN(Cc1c(F)cc(-c2ccn(C(F)F)n2)cc1F)NC(=O)[C@@H](NC(=O)OC)C(C)(C)C(F)(F)F)OC(=O)CC(C)(C)c1c(CC(=O)NC(CC(=O)O)CC(=O)O)cc(C)cc1OP(=O)(O)O)C(C)(C)C(F)(F)F [Example 43]	85.9	1661.5	4.82	1920 (≈ 1190 µM)	–	–	–	–	–
COC(=O)N[C@H](C(=O)N[C@@H](Cc1ccc(C#Cc2cnc(N3CC4CCC(C3)N4C3COC3)nc2)cc1)[C@H](CN(Cc1c(F)cc(-c2ccn(C(F)F)n2)cc1F)NC(=O)[C@@H](NC(=O)OC)C(C)(C)C(F)(F)F)OC(=O)CC(C)(C)c1c(CC(=O)N(CCC(=O)O)[C@@H](CCC(=O)O)C(=O)O)cc(C)cc1OP(=O)(O)O)C(C)(C)C(F)(F)F [Example 44]	528	1835.9	4.67	4550 (≈ 2700 µM)	–	–	–	–	–
COC(=O)N[C@H](C(=O)N[C@@H](Cc1ccc(C#Cc2cnc(N3CC4CCC(C3)N4C3COC3)nc2)cc1)[C@H](CN(Cc1c(F)cc(-c2ccn(C(F)F)n2)cc1F)NC(=O)[C@@H](NC(=O)OC)C(C)(C)C(F)(F)F)OC(=O)CC(C)(C)c1c(CC(=O)N[C@@H](Cc2c[nH]c3ccccc23)C(=O)O)cc(C)cc1OP(=O)(O)O)C(C)(C)C(F)(F)F [Example 48]	201	2071.6	4.76	910 (≈ 545 µM)	–	–	–	–	–
COC(=O)N[C@H](C(=O)N[C@@H](Cc1ccc(C#Cc2cnc(N3CC4CCC(C3)N4C3COC3)nc2)cc1)[C@H](CN(Cc1c(F)cc(-c2ccn(C(F)F)n2)cc1F)NC(=O)[C@@H](NC(=O)OC)C(C)(C)C(F)(F)F)OC(=O)CC(C)(C)c1c(CC(=O)NCc2ccc(C(F)F)cc2)cc(C)cc1OP(=O)(O)O)C(C)(C)C(F)(F)F [Example 50, (5S,10S,11S,14S)-8-(4-(1-(difluoromethyl)-1H-pyrazol-3-yl)-2,6-difluorobenzyl)-11-(4-((2-(8-(oxetan-3-yl)-3,8-diazabicyclo[3.2.1]octan-3-yl)pyrimidin-5-yl)ethynyl)benzyl)-3,6,13,16-tetraoxo-5,14-bis(1,1,1-trifluoro-2-methylpropan-2-yl)-2,17-dioxa-4,7,8,12,15-pentaazaoctadecan-10-yl 3-(2-(2-((4-(difluoromethyl)benzyl)amino)-2-oxoethyl)-4-methyl-6-(phosphonooxy)phenyl)-3-methylbutanoate]	1720	2228.1	8.26	< 1000	0 % of total	0.3	–	–	–
COC(=O)N[C@H](C(=O)N[C@@H](Cc1ccc(C#Cc2cnc(N3CC4CCC(C3)N4C3COC3)nc2)cc1)[C@H](CN(Cc1c(F)cc(-c2ccn(C(F)F)n2)cc1F)NC(=O)[C@@H](NC(=O)OC)C(C)(C)C(F)(F)F)OC(=O)O[C@H](C)OC(=O)CC(C)(C)c1c(CC(=O)O)cc(C)cc1OP(=O)(O)O)C(C)(C)C(F)(F)F [Example 65]	–	1224.6	–	–	–	–	12.6	11.15	1310
COC(=O)N[C@H](C(=O)N[C@@H](Cc1ccc(C#Cc2cnc(N3CC4CCC(C3)N4C3COC3)nc2)cc1)[C@H](CN(Cc1c(F)cc(-c2ccn(C(F)F)n2)cc1F)NC(=O)[C@@H](NC(=O)OC)C(C)(C)C(F)(F)F)OC(=O)CC(C)(C)c1c(CC(=O)N2CC(C(=O)O)CC(C(=O)O)C2)cc(C)cc1OP(=O)(O)O)C(C)(C)C(F)(F)F (stereo partly drawn) [Example 67]	205	1747.2	4.32	3160 (≈ 1930 µM)	9.1 % of total	175.4	–	–	–
COC(=O)N[C@H](C(=O)N[C@@H](Cc1ccc(C#Cc2cnc(N3CC4CCC(C3)N4C3COC3)nc2)cc1)[C@H](CN(Cc1c(F)cc(-c2ccn(C(F)F)n2)cc1F)NC(=O)[C@@H](NC(=O)OC)C(C)(C)C(F)(F)F)OC(=O)OCOC(=O)CC(C)(C)c1c(CC(=O)N[C@@H](CC(=O)O)C(=O)O)cc(C)cc1OP(=O)(O)O)C(C)(C)C(F)(F)F [Example 68]	5.9	1478.2	6.27	4440 (≈ 2650 µM)	–	–	–	–	–
COC(=O)N[C@H](C(=O)N[C@@H](Cc1ccc(C#Cc2cnc(N3CC4CCC(C3)N4C3COC3)nc2)cc1)[C@H](CN(Cc1c(F)cc(-c2ccn(C(F)F)n2)cc1F)NC(=O)[C@@H](NC(=O)OC)C(C)(C)C(F)(F)F)OC(=O)OCOC(=O)CC(C)(C)c1c(CC(=O)NCP(=O)(O)O)cc(C)cc1OP(=O)(O)O)C(C)(C)C(F)(F)F [Example 69]	3.5	1578.5	13.1	4950 (≈ 3000 µM)	–	–	–	–	–
COC(=O)N[C@H](C(=O)N[C@@H](Cc1ccc(C#Cc2cnc(N3CC4CCC(C3)N4C3COC3)nc2)cc1)[C@H](CN(Cc1c(F)cc(-c2ccn(C(F)F)n2)cc1F)NC(=O)[C@@H](NC(=O)OC)C(C)(C)C(F)(F)F)OC(=O)OCOC(=O)CC(C)(C)c1c(CC(=O)N[C@@H](CCC(=O)O)C(=O)O)cc(C)cc1OP(=O)(O)O)C(C)(C)C(F)(F)F [Example 70]	6.6	1164.8	5.27	5570 (≈ 3300 µM)	–	–	–	–	–
COC(=O)N[C@H](C(=O)N[C@@H](Cc1ccc(C#Cc2cnc(N3CC4CCC(C3)N4C3COC3)nc2)cc1)[C@H](CN(Cc1c(F)cc(-c2ccn(C(F)F)n2)cc1F)NC(=O)[C@@H](NC(=O)OC)C(C)(C)C(F)(F)F)OC(=O)OCOC(=O)CC(C)(C)c1c(CC(=O)NCC(=O)O)cc(C)cc1OP(=O)(O)O)C(C)(C)C(F)(F)F [Example 71]	3.9	1036.2	7.86	4420 (≈ 2740 µM)	–	–	–	–	–
COC(=O)N[C@H](C(=O)N[C@@H](Cc1ccc(C#Cc2cnc(N3CC4CCC(C3)N4C3COC3)nc2)cc1)[C@H](CN(Cc1c(F)cc(-c2ccn(C(F)F)n2)cc1F)NC(=O)[C@@H](NC(=O)OC)C(C)(C)C(F)(F)F)OC(=O)OCOC(=O)CC(C)(C)c1c(CC(=O)N[C@@H](CC(N)=O)C(=O)O)cc(C)cc1OP(=O)(O)O)C(C)(C)C(F)(F)F [Example 72]	5.4	827.8	6.12	4980 (≈ 2980 µM)	–	–	–	–	–
COC(=O)N[C@H](C(=O)N[C@@H](Cc1ccc(C#Cc2cnc(N3CC4CCC(C3)N4C3COC3)nc2)cc1)[C@H](CN(Cc1c(F)cc(-c2ccn(C(F)F)n2)cc1F)NC(=O)[C@@H](NC(=O)OC)C(C)(C)C(F)(F)F)OC(=O)OCOC(=O)CC(C)(C)c1c(CC(=O)NC(C)(C)CCC(=O)O)cc(C)cc1OP(=O)(O)O)C(C)(C)C(F)(F)F [Example 73]	4.6	1660.4	6.36	145 (≈ 86.7 µM)	–	–	–	–	–
COC(=O)N[C@H](C(=O)N[C@@H](Cc1ccc(C#Cc2cnc(N3CC4CCC(C3)N4C3COC3)nc2)cc1)[C@H](CN(Cc1c(F)cc(-c2ccn(C(F)F)n2)cc1F)NC(=O)[C@@H](NC(=O)OC)C(C)(C)C(F)(F)F)OC(=O)OCOC(=O)CC(C)(C)c1c(CC(=O)N2CC[C@H](C(=O)O)C2)cc(C)cc1OP(=O)(O)O)C(C)(C)C(F)(F)F [Example 75]	8.1	1420.1	4.77	4170 (≈ 2520 µM)	–	–	–	–	–
COC(=O)N[C@H](C(=O)N[C@@H](Cc1ccc(C#Cc2cnc(N3CC4CCC(C3)N4C3COC3)nc2)cc1)[C@H](CN(Cc1c(F)cc(-c2ccn(C(F)F)n2)cc1F)NC(=O)[C@@H](NC(=O)OC)C(C)(C)C(F)(F)F)OC(=O)CC(C)(C)c1c(CC(=O)N2CCN(CC(=O)O)CC2)cc(C)cc1OP(=O)(O)O)C(C)(C)C(F)(F)F [Example 82]	335	1224.3	6.71	< 1000	–	–	–	–	–
